# Source: ChEMBL document CHEMBL1143295, “Discovery of potent inhibitors of interleukin-2 inducible T-cell kinase (ITK) through structure-based drug design” (Bioorg Med Chem Lett, 2009)
# Experiments:
# Insulin receptor = Insulin receptor (Homo sapiens, UniProt P06213); assay: Inhibition of IRK
# [1] = target: T1, Tyrosine-protein kinase ITK/TSK (Homo sapiens, UniProt Q08881); assay: Inhibition of human ITK expressed in chicken DT40 cells assessed as calcium influx by FLIPR; format: cell-based
# T1 sequence (Q08881 whole entry): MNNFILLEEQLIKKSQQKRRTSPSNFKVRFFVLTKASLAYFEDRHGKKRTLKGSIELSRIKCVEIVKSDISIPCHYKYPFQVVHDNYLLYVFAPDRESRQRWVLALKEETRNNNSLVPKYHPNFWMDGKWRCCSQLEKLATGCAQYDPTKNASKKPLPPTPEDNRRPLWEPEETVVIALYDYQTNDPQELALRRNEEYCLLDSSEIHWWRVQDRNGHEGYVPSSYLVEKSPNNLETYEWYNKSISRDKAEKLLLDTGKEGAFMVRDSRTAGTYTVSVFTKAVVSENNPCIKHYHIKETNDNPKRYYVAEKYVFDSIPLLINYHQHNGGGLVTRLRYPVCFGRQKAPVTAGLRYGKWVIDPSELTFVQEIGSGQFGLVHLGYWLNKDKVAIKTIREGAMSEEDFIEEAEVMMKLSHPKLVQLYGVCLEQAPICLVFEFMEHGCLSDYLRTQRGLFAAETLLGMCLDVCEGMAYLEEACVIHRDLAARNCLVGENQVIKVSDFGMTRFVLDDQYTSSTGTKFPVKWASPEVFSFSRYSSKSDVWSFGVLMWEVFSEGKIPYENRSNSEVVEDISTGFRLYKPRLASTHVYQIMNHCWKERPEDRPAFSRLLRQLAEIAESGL
# [2] = target: T1, Tyrosine-protein kinase ITK/TSK; assay: Inhibition of ITK by DELFIA method
# [3] = Selectivity ratio of IC50 for IRK to IC50 for ITK
# Chain of Insulin receptor (P06213 28-758 limits assumed): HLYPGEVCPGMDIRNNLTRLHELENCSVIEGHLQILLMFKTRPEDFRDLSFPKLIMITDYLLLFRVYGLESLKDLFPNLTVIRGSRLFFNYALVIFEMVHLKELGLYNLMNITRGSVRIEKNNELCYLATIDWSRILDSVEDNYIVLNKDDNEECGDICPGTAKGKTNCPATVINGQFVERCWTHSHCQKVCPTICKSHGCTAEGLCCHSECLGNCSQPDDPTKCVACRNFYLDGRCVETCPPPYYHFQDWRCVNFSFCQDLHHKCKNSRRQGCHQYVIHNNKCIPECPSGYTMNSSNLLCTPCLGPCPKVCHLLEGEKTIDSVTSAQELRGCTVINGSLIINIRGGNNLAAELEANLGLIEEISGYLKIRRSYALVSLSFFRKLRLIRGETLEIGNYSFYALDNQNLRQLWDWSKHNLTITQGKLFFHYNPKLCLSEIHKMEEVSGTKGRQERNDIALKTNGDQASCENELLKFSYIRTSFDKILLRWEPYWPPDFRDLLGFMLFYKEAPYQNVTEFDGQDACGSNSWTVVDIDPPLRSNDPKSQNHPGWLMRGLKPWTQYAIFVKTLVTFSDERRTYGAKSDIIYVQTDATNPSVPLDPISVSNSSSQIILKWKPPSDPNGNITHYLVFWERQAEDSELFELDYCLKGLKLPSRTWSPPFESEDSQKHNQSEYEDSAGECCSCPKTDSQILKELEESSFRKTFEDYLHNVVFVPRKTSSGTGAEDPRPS
# Chain of Insulin receptor (P06213 763-1382 limits assumed): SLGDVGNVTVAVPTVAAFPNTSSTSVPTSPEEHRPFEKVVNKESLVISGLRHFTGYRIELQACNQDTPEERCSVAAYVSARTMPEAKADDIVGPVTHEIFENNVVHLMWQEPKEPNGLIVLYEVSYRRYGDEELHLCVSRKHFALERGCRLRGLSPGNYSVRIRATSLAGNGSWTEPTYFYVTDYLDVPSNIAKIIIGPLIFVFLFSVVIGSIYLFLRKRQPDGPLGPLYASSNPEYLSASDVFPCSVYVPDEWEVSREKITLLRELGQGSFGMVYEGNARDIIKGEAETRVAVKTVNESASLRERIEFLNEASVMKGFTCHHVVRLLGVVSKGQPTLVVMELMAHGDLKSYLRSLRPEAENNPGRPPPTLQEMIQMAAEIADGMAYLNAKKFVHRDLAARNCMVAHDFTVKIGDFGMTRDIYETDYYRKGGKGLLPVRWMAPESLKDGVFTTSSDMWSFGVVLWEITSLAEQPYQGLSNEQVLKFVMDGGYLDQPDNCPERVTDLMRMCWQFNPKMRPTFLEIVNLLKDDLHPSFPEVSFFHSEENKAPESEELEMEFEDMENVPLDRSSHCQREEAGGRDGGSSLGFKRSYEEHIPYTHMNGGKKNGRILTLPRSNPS
smiles,measurement,setting,value
CN(C(=O)c1ccccc1)c1ccc2c(c1)[nH]/c(=N\C(=O)c1ccc(-c3ccncc3)s1)n2CCC(N)=O,IC50,Insulin receptor,> 6 µM
CN(C(=O)c1ccccc1)c1ccc2c(c1)[nH]/c(=N\C(=O)c1cccc(-c3ccccc3)c1)n2CCC(N)=O,IC50,Insulin receptor,> 6 µM
CN(C(=O)c1ccccc1)c1ccc2c(c1)[nH]/c(=N\C(=O)c1cncs1)n2CCC(N)=O,IC50,Insulin receptor,1.6 µM
same,IC50,[1],> 5 µM
same,IC50,[2],0.13 µM
CN(C(=O)c1ccccc1)c1ccc2c(c1)nc(NC(=O)c1ccc(-c3nccs3)s1)n2CCC(N)=O,IC50,Insulin receptor,> 6 µM
CN(C(=O)c1ccccc1)c1ccc2c(c1)nc(NC(=O)c1ccc(-c3ccc(F)nc3)s1)n2CCC(N)=O,IC50,Insulin receptor,> 6 µM
CC(=O)c1ccc(C(=O)Nc2nc3cc(N(C)C(=O)c4ccccc4)ccc3n2CCC(N)=O)s1,IC50,Insulin receptor,> 6 µM
CN(C(=O)c1ccccc1)c1ccc2c(c1)nc(NC(=O)c1cscn1)n2CCC(N)=O,IC50,Insulin receptor,6.1 µM
same,IC50,[1],> 5 µM
same,IC50,[2],0.34 µM
CN(C(=O)c1ccccc1)c1ccc2c(c1)nc(NC(=O)c1ccc(C(=O)c3ccccc3)s1)n2CCC(N)=O,IC50,Insulin receptor,> 6 µM
CN(C(=O)c1ccccc1)c1ccc2c(c1)[nH]/c(=N\C(=O)c1ccc(-c3cccnc3)s1)n2CCC(N)=O,IC50,Insulin receptor,> 6 µM
CN(C(=O)c1ccccc1)c1ccc2c(c1)nc(NC(=O)c1ccc(OCc3ccccc3)s1)n2CCC(N)=O,IC50,Insulin receptor,> 6 µM
CN(C(=O)c1ccccc1)c1ccc2c(c1)[nH]/c(=N\C(=O)c1ccc(-c3cnccn3)s1)n2CCC(N)=O,IC50,Insulin receptor,> 6 µM
CN(C(=O)c1ccccc1)c1ccc2c(c1)nc(NC(=O)c1ccc3ccccc3c1)n2CCC(N)=O,IC50,Insulin receptor,> 6 µM
CN(C(=O)c1ccccc1)c1ccc2c(c1)nc(NC(=O)c1ccc(Br)cc1)n2CCC(N)=O,IC50,Insulin receptor,> 6 µM
CN(C(=O)c1ccccc1)c1ccc2c(c1)nc(NC(=O)c1cocn1)n2CCC(N)=O,IC50,Insulin receptor,> 6 µM
same,IC50,[1],> 5 µM
same,IC50,[2],0.17 µM
CN(C(=O)c1ccccc1)c1ccc2c(c1)nc(NC(=O)c1ccc(C#N)cc1)n2CCC(N)=O,IC50,Insulin receptor,> 6 µM
CN(C(=O)c1ccccc1)c1ccc2c(c1)[nH]/c(=N\C(=O)c1ncco1)n2CCC(N)=O,IC50,Insulin receptor,> 6 µM
CC(C)C(=O)c1ccc(C(=O)Nc2nc3cc(N(C)C(=O)c4ccccc4)ccc3n2CCC(N)=O)s1,IC50,Insulin receptor,> 6 µM
CN(C(=O)c1ccccc1)c1ccc2c(c1)[nH]/c(=N\C(=O)c1cnco1)n2CCC(N)=O,Ratio IC50,[3],> 1000
same,IC50,Insulin receptor,> 6 µM
same,IC50,[1],> 5 µM
same,IC50,[2],0.18 µM
CN(C(=O)c1ccccc1)c1ccc2c(c1)[nH]/c(=N\C(=O)c1ccc(-c3ccccn3)s1)n2CCC(N)=O,IC50,Insulin receptor,> 6 µM
CN(C(=O)c1ccccc1)c1ccc2c(c1)[nH]/c(=N\C(=O)c1ccc(-c3ccccc3)cc1)n2CCC(N)=O,IC50,Insulin receptor,> 6 µM
CN(C(=O)c1ccccc1)c1ccc2c(c1)[nH]/c(=N\C(=O)c1ccc(-c3cncc(C#N)c3)s1)n2CCC(N)=O,IC50,Insulin receptor,> 6 µM
CN(C(=O)c1ccccc1)c1ccc2c(c1)nc(NC(=O)c1ccc(Br)s1)n2CCC(N)=O,IC50,Insulin receptor,0.63 µM
same,IC50,[1],0.1 µM
same,IC50,[2],0.015 µM
CN(C(=O)c1ccccc1)c1ccc2c(c1)nc(NC(=O)c1ccc(-c3ccnc(C#N)c3)s1)n2CCC(N)=O,IC50,Insulin receptor,> 6 µM
CN(C(=O)c1ccccc1)c1ccc2c(c1)[nH]/c(=N\C(=O)c1cocn1)n2CCC(N)=O,Ratio IC50,[3],> 1000
CN(C(=O)c1ccccc1)c1ccc2c(c1)[nH]/c(=N\C(=O)c1cccc3ccccc13)n2CCC(N)=O,IC50,Insulin receptor,5.8 µM
CN(C(=O)c1ccccc1)c1ccc2c(c1)nc(NC(=O)c1ccc(-c3ccnc(F)c3)s1)n2CCC(N)=O,IC50,Insulin receptor,> 6 µM
CN(C(=O)c1ccccc1)c1ccc2c(c1)nc(NC(=O)c1ccc(N3CCNCC3)s1)n2CCC(N)=O,IC50,Insulin receptor,> 6 µM
same,IC50,[1],> 3.2 µM
same,IC50,[2],0.15 µM
CN(C(=O)c1ccccc1)c1ccc2c(c1)[nH]/c(=N\C(=O)c1ccc(-c3ccc(C#N)nc3)s1)n2CCC(N)=O,IC50,Insulin receptor,> 6 µM
CN(C(=O)c1ccccc1)c1ccc2c(c1)nc(NC(=O)c1ccno1)n2CCC(N)=O,IC50,Insulin receptor,> 6 µM
CN(C(=O)c1ccccc1)c1ccc2c(c1)nc(NC(=O)c1ccsc1)n2CCC(N)=O,IC50,Insulin receptor,0.24 µM
CN(C(=O)c1ccccc1)c1ccc2c(c1)[nH]/c(=N\C(=O)c1ccc(-c3ccccc3)s1)n2CCC(N)=O,IC50,Insulin receptor,> 6 µM
CN(C(=O)c1ccccc1)c1ccc2c(c1)nc(NC(=O)c1ccc(-c3cocn3)s1)n2CCC(N)=O,IC50,Insulin receptor,> 6 µM
CN(C(=O)c1ccccc1)c1ccc2c(c1)[nH]/c(=N\C(=O)c1ccc(N3CCCC3)s1)n2CCC(N)=O,IC50,Insulin receptor,> 6 µM
CN(C(=O)c1ccccc1)c1ccc2c(c1)nc(NC(=O)c1ccc(N3CCOCC3)s1)n2CCC(N)=O,IC50,Insulin receptor,> 6 µM
same,IC50,[1],> 3.2 µM
same,IC50,[2],0.074 µM
CN(C(=O)c1ccccc1)c1ccc2c(c1)[nH]/c(=N\C(=O)c1ccc(-c3ncco3)s1)n2CCC(N)=O,IC50,Insulin receptor,> 6 µM
COc1ccc(C(=O)Nc2nc3cc(N(C)C(=O)c4ccccc4)ccc3n2CCC(N)=O)cc1,IC50,Insulin receptor,> 6 µM
same,IC50,[1],> 5 µM
same,IC50,[2],0.17 µM
CN(C(=O)c1ccccc1)c1ccc2c(c1)[nH]/c(=N\C(=O)c1ccc(-c3csc(N)n3)s1)n2CCC(N)=O,IC50,Insulin receptor,> 6 µM
CN(C(=O)c1ccccc1)c1ccc2c(c1)nc(NC(=O)c1ccc(Oc3ccccc3)s1)n2CCC(N)=O,IC50,Insulin receptor,> 6 µM
CN(C(=O)c1ccccc1)c1ccc2c(c1)[nH]/c(=N\C(=O)c1ccc(N3CCCCC3)s1)n2CCC(N)=O,IC50,Insulin receptor,> 6 µM
